Experimental data: paper PMC3350394, “Kinetic analysis and test-retest variability of the radioligand [^11C](R)-PK11195 binding to TSPO in the human brain - a PET study in control subjects” (EJNMMI Research, 2012)
Values joined by “and” are separate entries in the source; they are usually repeats but may differ in a detail not shown here. Equal values may be shown once.

Biological target: TSPO (Homo sapiens, UniProt P30536)
Test: PET, kinetic compartment analysis (1TCM, 2TCM) with metabolite-corrected arterial input function
Settings: for BPND (k3/k4) Mean: mean of test and retest; for BPND (k3/k4) Retest / BPND (k3/k4) Test / VT (2TCM): mean(SD); for BPND (k3/k4) Retest / BPND (k3/k4) Test: 6 subjects; for ICC: BPND test-retest
Protocol: Each subject was placed recumbent with the head in the PET system. A head fixation system with an individual plaster helmet was used. A cannula was inserted into the left radial artery and another into the right antecubital vein. A sterile phosphate buffer (pH = 7.4) containing radioligand was injected as a bolus over 2 s into the cubital vein. The cannula was then immediately flushed with a 10-mL saline solution. In each individual, the measurement was repeated after approximately 6 weeks.
The PET system used was ECAT Exact HR 47 (Siemens/CTI, Knoxville, TN, USA), with an in-plane and an axial resolution of 3.6 and 4.0 mm, respectively, full width at half maximum (FWHM). The radioactivity in the brain was measured continuously for 60 min using a pre-programmed sequence of […] (20 s × 9, 30 s × 6, 180 s × 5, 300 s × 5). […] The images were reconstructed with a Hanning filter (FWHM = 2 mm) in a matrix of 128 × 128 × 47 voxels, yielding a voxel size of 2.03 × 2.03 × 3.125 mm. Attenuation correction was done using transmission scan data obtained for each subject.
[^11C](R)-PK11195 binding to TSPO was quantified using kinetic compartment analyses with the metabolite-corrected arterial plasma curve as input function. Two compartment models (one- and two-tissue) were used to fit the model to the TACs. The fractional volume of blood present in the tissue volume and bolus time were estimated for each individual, each occasion, by fitting the whole brain TAC with a two-tissue compartment model.
The one-tissue compartment model (1TCM) describes one compartment which is a composite of free, non-specifically and specifically bound radioligands. The two rate constants, K1 and k2, describe the influx and efflux rates across the blood-brain barrier, respectively.
The two-tissue compartment model (2TCM) has been described in detail in the literature. The two-tissue compartments are defined as the radioactivity concentration of a nondisplaceable radioligand in the brain (CND) and the radioactivity concentration of a radioligand specifically bound to receptors (CB). In this model, four rate constants (K1, k2, k3 and k4) explain the time curves for radioligand in the brain. In short, the four rate constants were determined by curve fitting with a weighted non-linear least squares fitting technique with constraint-restricting parameters between 0 and 0.9. Each initial value for K1, k2, k3 and k4 was 0.5, 0.1, 0.5 and 0.5, respectively. The local minimum of the sum of the squared residuals was determined by iteration.
Regional [^11C](R)-PK11195 binding was expressed using the concept of the total distribution volume (VT), which is defined by the following equation, using kinetic constants obtained from 2TCM [16, 20, 21].
Specific [^11C](R)-PK11195 binding was expressed as binding potential relative to nondisplaceable binding (BPND) as follows:
The fractional volume of blood present in the tissue volume was determined for each individual, each occasion. It was obtained by fitting whole brain TAC with a 2TCM with six parameters (K1, k2, k3, k4, fractional blood volume (VB) and time shift between plasma input function and PET TAC (tbolus)) and parameters VB and tbolus subsequently applied for each brain region.
The reproducibility of two successive PET measurements was analysed by means of descriptive statistics (mean, range, SD, coefficient of variance (CV), difference in measurement (error in percent) and intra-class correlation coefficient (ICC)). The ICC was calculated from the between-subject and within-subject variations, using the expression: […]

[1] = putamen (R), BPND test-retest difference in measurements
[2] = thalamus (L), BPND test-retest difference in measurements
[3] = thalamus (R), BPND test-retest difference in measurements
[4] = thalamus, BPND test-retest difference in measurements
[5] = thalamus, VT (2TCM) test-retest
[6] = white matter, 1TCM, retest (2), individual subjects 1-6
[7] = white matter, 1TCM, retest (2), mean(SD/CV) of 6 subjects
[8] = white matter, 1TCM, test (1), individual subjects 1-6
[9] = white matter, 1TCM, test (1), mean(SD/CV) of 6 subjects
[10] = white matter, 2TCM, retest (2), individual subjects 1-6
[11] = white matter, 2TCM, retest (2), mean(SD/CV) of 6 subjects
[12] = white matter, 2TCM, test (1), individual subjects 1-6
[13] = white matter, 2TCM, test (1), mean(SD/CV) of 6 subjects
[14] = white matter, BPND test-retest difference in measurements
[15] = white matter, VT (2TCM) test-retest
[16] = whole brain, BPND test-retest difference in measurements
[17] = whole brain, VT (2TCM) test-retest

Chain of TSPO (P30536 whole entry): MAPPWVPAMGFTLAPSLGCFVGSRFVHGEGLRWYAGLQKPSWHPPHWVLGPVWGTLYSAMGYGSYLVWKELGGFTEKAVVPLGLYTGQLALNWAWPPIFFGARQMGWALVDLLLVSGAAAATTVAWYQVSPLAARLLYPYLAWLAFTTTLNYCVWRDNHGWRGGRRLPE

CC[C@@H](C)N([11CH3])C(=O)c1cc2ccccc2c(-c2ccccc2Cl)n1 [[^11C](R)-PK11195]
BPND (k3/k4) Mean (putamen (R), 2TCM): 1.41
BPND (k3/k4) Retest (putamen (R), 2TCM): 1.56(0.73)
BPND (k3/k4) Test (putamen (R), 2TCM): 1.27(0.48)
ICC (putamen (R)): -0.01
Error % mean(SD) [1]: -32(72) %
Error range (%) [1]: -145 to 34%
BPND (k3/k4) Mean (putamen, 2TCM): 1.38
BPND (k3/k4) Retest (putamen, 2TCM): 1.50(0.69)
BPND (k3/k4) Test (putamen, 2TCM): 1.20(0.28)
ICC (putamen): 0.09
Error range (%) (putamen, BPND test-retest difference in measurements): -138 to 21%
Error % mean(SD) (putamen, VT (2TCM) test-retest): 17(38) %
Error range (%) (putamen, VT (2TCM) test-retest): -32 to 78%
VT (2TCM) (putamen, retest): 0.93(0.19)
VT (2TCM) (putamen, test): 0.83(0.21)
BPND (k3/k4) Mean (thalamus (L), 2TCM): 1.26
BPND (k3/k4) Retest (thalamus (L), 2TCM): 1.42(0.59)
BPND (k3/k4) Test (thalamus (L), 2TCM): 1.11(0.25)
ICC (thalamus (L)): 0.17
Error % mean(SD) [2]: -32(64) %
Error range (%) [2]: -136 to 39%
BPND (k3/k4) Mean (thalamus (R), 2TCM): 1.60
BPND (k3/k4) Retest (thalamus (R), 2TCM): 1.86(0.56)
BPND (k3/k4) Test (thalamus (R), 2TCM): 1.34(0.43)
ICC (thalamus (R)): 0.16
Error % mean(SD) [3]: -46(50) %
Error range (%) [3]: -136 to 17%
BPND (k3/k4) Mean (thalamus, 2TCM): 1.36
BPND (k3/k4) Retest (thalamus, 2TCM): 1.53(0.45)
BPND (k3/k4) Test (thalamus, 2TCM): 1.19(0.28)
ICC (thalamus): 0.57
Error % mean(SD) [4]: -29% and -29(33) %
Error range (%) [4]: -82 to 9%
Error % mean(SD) [5]: -6(29) %
Error range (%) [5]: -47 to 40%
VT (2TCM) (thalamus, retest): 0.80 (0.23)
VT (2TCM) (thalamus, test): 0.90(0.27)
K1 [6]: 0.075 mL/cc/min and 0.027 mL/cc/min and 0.032 mL/cc/min and 0.033 mL/cc/min and 0.042 mL/cc/min and 0.046 mL/cc/min
k2 [6]: 0.085 min⁻¹ and 0.066 min⁻¹ and 0.078 min⁻¹ and 0.064 min⁻¹ and 0.071 min⁻¹ and 0.089 min⁻¹
K1 [7]: 0.043(0.017/39) mL/cc/min
k2 [7]: 0.076(0.010/13) min^-1
K1 [8]: 0.049 mL/cc/min and 0.027 mL/cc/min and 0.048 mL/cc/min and 0.030 mL/cc/min and 0.055 mL/cc/min and 0.044 mL/cc/min
k2 [8]: 0.066 min⁻¹ and 0.081 min⁻¹ and 0.072 min⁻¹ and 0.086 min⁻¹ and 0.071 min⁻¹
K1 [9]: 0.042(0.011/26) mL/cc/min
k2 [9]: 0.074(0.008/11) min^-1
BPND (k3/k4) Mean (white matter, 2TCM): 1.84
BPND (k3/k4) Retest (white matter, 2TCM): 1.78(0.42)
BPND (k3/k4) Test (white matter, 2TCM): 1.90(0.42)
K1 [10]: 0.060 mL/cc/min and 0.097 mL/cc/min and 0.035 mL/cc/min and 0.045 mL/cc/min and 0.039 mL/cc/min and 0.051 mL/cc/min
k2 [10]: 0.206 min⁻¹ and 0.209 min⁻¹ and 0.164 min⁻¹ and 0.223 min⁻¹ and 0.126 min⁻¹ and 0.144 min⁻¹
k3 [10]: 0.042 min⁻¹ and 0.061 min⁻¹ and 0.041 min⁻¹ and 0.046 min⁻¹ and 0.028 min⁻¹ and 0.033 min⁻¹
k4 [10]: 0.025 min⁻¹ and 0.045 min⁻¹ and 0.020 min⁻¹ and 0.019 min⁻¹ and 0.018 min⁻¹ and 0.022 min⁻¹
K1 [11]: 0.055(0.023/42) mL/cc/min
k2 [11]: 0.179(0.040/22) min^-1
k3 [11]: 0.042(0.011/26) min^-1
k4 [11]: 0.025(0.010/40) min^-1
K1 [12]: 0.061 mL/cc/min and 0.032 mL/cc/min and 0.035 mL/cc/min and 0.067 mL/cc/min and 0.056 mL/cc/min
k2 [12]: 0.154 min⁻¹ and 0.124 min⁻¹ and 0.184 min⁻¹ and 0.138 min⁻¹ and 0.165 min⁻¹ and 0.176 min⁻¹
k3 [12]: 0.043 min⁻¹ and 0.024 min⁻¹ and 0.034 min⁻¹ and 0.037 min⁻¹
k4 [12]: 0.026 min⁻¹ and 0.019 min⁻¹ and 0.014 min⁻¹ and 0.012 min⁻¹ and 0.030 min⁻¹
K1 [13]: 0.052(0.015/29) mL/cc/min
k2 [13]: 0.157(0.02/13) min^-1
k3 [13]: 0.034(0.009/26) min^-1
k4 [13]: 0.020(0.007/35) min^-1
ICC (white matter): 0.73
Error % mean(SD) [14]: -4% and -8% and -8(18) %
Error range (%) [14]: -25 to 21%
Error % mean(SD) [15]: -9(25) %
Error range (%) [15]: -42 to 28%
VT (2TCM) (white matter, retest): 0.88 (0.19)
VT (2TCM) (white matter, test): 0.99(0.17)
BPND (k3/k4) Mean (whole brain, 2TCM): 1.67
BPND (k3/k4) Retest (whole brain, 2TCM): 1.68(0.35)
BPND (k3/k4) Test (whole brain, 2TCM): 1.65(0.33)
ICC (whole brain): 0.57
Error % mean(SD) [16]: 4% and -4(19) %
Error range (%) [16]: -25 to 22%
Error % mean(SD) [17]: -7(20) %
Error range (%) [17]: -38 to 21%
VT (2TCM) (whole brain, retest): 0.75 (0.16)
VT (2TCM) (whole brain, test): 0.82(0.18)
